Test results published in patent US10899737B2, “Piperazine carbamates and methods of making and using same” (Lundbeck La Jolla Research Center, Inc., priority 2016, dated 2021).

Key:
Assay type in all cases: biochemical
ABHD6 [1] = target: T1, ABHD6 (Homo sapiens, UniProt Q9BV23); test: In vitro competitive activity-based protein profiling (human), ABHD6; conditions: human PC3
T1 construct: Proteomes (human prefrontal cortex or cell membrane fractions); endogenous in cells; human prefrontal cortex
T1 sequence (Q9BV23 1-337): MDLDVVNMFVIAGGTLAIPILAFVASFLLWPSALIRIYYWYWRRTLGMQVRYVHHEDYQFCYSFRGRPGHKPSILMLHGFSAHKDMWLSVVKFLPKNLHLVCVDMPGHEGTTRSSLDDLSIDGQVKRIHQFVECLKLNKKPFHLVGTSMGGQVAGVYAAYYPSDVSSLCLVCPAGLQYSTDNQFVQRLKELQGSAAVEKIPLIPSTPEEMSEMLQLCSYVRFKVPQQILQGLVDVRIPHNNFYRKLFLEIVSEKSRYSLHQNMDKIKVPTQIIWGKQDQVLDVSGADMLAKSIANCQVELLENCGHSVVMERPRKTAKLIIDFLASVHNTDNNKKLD
Procedure: (§1) In Vitro Competitive Activity-Based Protein Profiling (Human).
(§2) Proteomes (human prefrontal cortex or cell membrane fractions) (50 μL, 1.0-2.0 mg/mL total protein concentration) were preincubated with varying concentrations of inhibitors at 37° C. After 30 min, FP-Rh or JW912 (1.0 μL, 50 μM in DMSO) was added and the mixture was incubated for another 30 min at room temperature. Reactions were quenched with SDS loading buffer (15 μL-4×) and run on SDS-PAGE. Following gel imaging, serine hydrolase activity was determined by measuring fluorescent intensity of gel bands corresponding to MAGL and ABHD6 using ImageJ 1.49 k software.

MAGL [2] = target: T2, MAGL (Homo sapiens, UniProt Q99685); test: In vitro competitive activity-based protein profiling (human), MAGL; conditions: for inhibition at 1 µM: 1 μM inhibitor, human proteome, 30 min preincubation at 37° C, read-out: MAGL % inh. 1 μM (human); for IC50: human PC3
T2 construct: Proteomes (human prefrontal cortex or cell membrane fractions); from tissue
T2 sequence (Q99685 1-303): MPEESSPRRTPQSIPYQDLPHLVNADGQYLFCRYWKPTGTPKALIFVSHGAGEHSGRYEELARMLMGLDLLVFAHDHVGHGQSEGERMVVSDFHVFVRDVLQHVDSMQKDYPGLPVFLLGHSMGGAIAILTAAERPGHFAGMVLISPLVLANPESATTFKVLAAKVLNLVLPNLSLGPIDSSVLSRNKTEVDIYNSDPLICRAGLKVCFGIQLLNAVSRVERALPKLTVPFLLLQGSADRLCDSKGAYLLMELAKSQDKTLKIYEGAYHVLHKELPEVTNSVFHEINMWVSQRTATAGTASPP
Procedure: as §1, §2

MAGL [3] = target: T3, MAGL (Mus musculus, UniProt O35678); test: In vitro competitive activity-based protein profiling (mouse), MAGL; conditions: 1 μM inhibitor, mouse brain membrane fraction or cell lysates; read-out: MAGL % inh. 1 μM (mouse)
T3 construct: Proteomes (mouse brain membrane fraction or cell lysates); from tissue; host or cells: mouse brain membrane fraction or cell lysates
T3 sequence (O35678 1-303): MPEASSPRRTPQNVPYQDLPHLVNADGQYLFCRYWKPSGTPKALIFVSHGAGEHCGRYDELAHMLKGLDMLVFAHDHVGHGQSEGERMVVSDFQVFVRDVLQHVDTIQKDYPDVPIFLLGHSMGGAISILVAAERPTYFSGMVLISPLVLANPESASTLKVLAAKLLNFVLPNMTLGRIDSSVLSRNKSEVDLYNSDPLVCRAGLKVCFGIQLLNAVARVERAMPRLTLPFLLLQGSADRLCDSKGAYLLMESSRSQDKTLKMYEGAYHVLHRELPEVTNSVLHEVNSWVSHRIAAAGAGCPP
Procedure: (§3) In Vitro Competitive Activity-Based Protein Profiling (Mouse).
(§4) Proteomes (mouse brain membrane fraction or cell lysates) (50 μL, 1.0 mg/mL total protein concentration) were preincubated with varying concentrations of inhibitors at 37° C. After 30 min, FP-Rh (1.0 μL, 50 μM in DMSO) was added and the mixture was incubated for another 30 min at 37° C. Reactions were quenched with SDS loading buffer (50 μL-4×) and run on SDS-PAGE. Following gel imaging, serine hydrolase activity was determined by measuring fluorescent intensity of gel bands corresponding to MAGL and ABHD6 using ImageJ 1.49 k software. Data from this assay is shown in Table 1 (% inhibition at 1 μM).

ABHD6 [4] = target: T4, ABHD6 (Mus musculus, UniProt Q8R2Y0); test: In vitro competitive activity-based protein profiling (mouse), ABHD6; conditions: 1 μM inhibitor, mouse brain membrane fraction or cell lysates; read-out: ABHD6 % inh. 1 μM (mouse)
T4 construct: Proteomes (mouse brain membrane fraction or cell lysates); from tissue; host or cells: mouse brain membrane fraction or cell lysates
T4 sequence (Q8R2Y0 1-336): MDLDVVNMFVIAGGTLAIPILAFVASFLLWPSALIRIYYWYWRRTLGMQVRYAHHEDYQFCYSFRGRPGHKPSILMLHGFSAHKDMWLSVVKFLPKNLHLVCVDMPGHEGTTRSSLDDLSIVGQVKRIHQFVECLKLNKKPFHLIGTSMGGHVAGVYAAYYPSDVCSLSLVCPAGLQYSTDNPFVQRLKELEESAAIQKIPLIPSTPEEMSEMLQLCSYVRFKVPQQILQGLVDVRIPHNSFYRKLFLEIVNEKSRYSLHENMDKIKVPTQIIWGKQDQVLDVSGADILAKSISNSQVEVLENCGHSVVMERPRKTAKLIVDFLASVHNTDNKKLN
Procedure: as §3, §4

IC50 (ABHD6 [1]) | inhibition at 1 µM (MAGL [2]) | IC50 (MAGL [2]) | inhibition at 1 µM (MAGL [3]) | inhibition at 1 µM (ABHD6 [4]) | Compound
 |  |  | ≥ 75% | ≥ 75% | O=C(O)C1CCN(c2ccc(CN3CCN(C(=O)OC(C(F)(F)F)C(F)(F)F)CC3)cc2)CC1 [Example 77, 1-(4-((4-(((1,1,1,3,3,3-hexafluoropropan-2-yl)oxy)carbonyl)piperazin-1-yl)methyl)phenyl)piperidine-4-carboxylic acid]
1 to 10 µM |  | ≤ 0.1 µM |  |  | Cc1cc(N2CCC(C(=O)O)CC2)c(CN2CCN(C(=O)OC(C(F)(F)F)C(F)(F)F)CC2)cc1F [Example 76, 1-(4-fluoro-2-((4-(((1,1,1,3,3,3-hexafluoropropan-2-yl)oxy)carbonyl)piperazin-1-yl)methyl)-5-methylphenyl)piperidine-4-carboxylic acid]
 | ≥ 75% |  | ≥ 75% | ≥ 75% | O=C(O)C1CN(c2cc(C(F)(F)F)ccc2CN2CCN(C(=O)OC(C(F)(F)F)C(F)(F)F)CC2)C1 [Example 79, 1-(2-((4-(((1,1,1,3,3,3-hexafluoropropan-2-yl)oxy)carbonyl)piperazin-1-yl)methyl)-5-(trifluoromethyl)phenyl)azetidine-3-carboxylic acid]
 | ≥ 75% |  | ≥ 75% | 50 to 75% | C#Cc1ccc(CN2CCN(C(=O)OC(C(F)(F)F)C(F)(F)F)CC2)c(N2CCC(C(=O)O)CC2)c1 [Example 82, 1-(5-ethynyl-2-((4-(((1,1,1,3,3,3-hexafluoropropan-2-yl)oxy)carbonyl)piperazin-1-yl)methyl)phenyl)piperidine-4-carboxylic acid]
 | ≥ 75% |  | ≥ 75% | ≥ 75% | O=C(O)C1CCN(c2c(CN3CCN(C(=O)OC(C(F)(F)F)C(F)(F)F)CC3)cccc2C(F)(F)F)CC1 [Example 74, 1-(2-((4-(((1,1,1,3,3,3-hexafluoropropan-2-yl)oxy)carbonyl)piperazin-1-yl)methyl)-6-(trifluoromethyl)phenyl)piperidine-4-carboxylic acid]
 | ≥ 75% |  | ≥ 75% | 50 to 75% | O=C(O)C1CCN(c2c(Cl)cccc2CN2CCN(C(=O)OC(C(F)(F)F)C(F)(F)F)CC2)CC1 [Example 75, 1-(2-chloro-6-((4-(((1,1,1,3,3,3-hexafluoropropan-2-yl)oxy)carbonyl)piperazin-1-yl)methyl)phenyl)piperidine-4-carboxylic acid]

Continued, molecule first:

Compound | IC50 (ABHD6 [1]) | inhibition at 1 µM (MAGL [2]) | IC50 (MAGL [2]) | inhibition at 1 µM (MAGL [3]) | inhibition at 1 µM (ABHD6 [4])
O=C(O)C1COCCN1c1cc(CN2CCN(C(=O)OC(C(F)(F)F)C(F)(F)F)CC2)cc(C(F)(F)F)c1 (centres unmarked) [Example 68, 4-(3-((4-(((1,1,1,3,3,3-hexafluoropropan-2-yl)oxy)carbonyl)piperazin-1-yl)methyl)-5-(trifluoromethyl)phenyl)morpholine-3-carboxylic acid] | 0.1 to 1 µM | ≥ 75% | ≤ 0.1 µM | ≥ 75% | ≥ 75%
O=C(O)CNC1CCN(c2cc(C(F)(F)F)ccc2CN2CCN(C(=O)OC(C(F)(F)F)C(F)(F)F)CC2)CC1 [Example 49, (1-(2-((4-(((1,1,1,3,3,3-hexafluoropropan-2-yl)oxy)carbonyl)piperazin-1-yl)methyl)-5-(trifluoromethyl)phenyl)piperidin-4-yl)glycine] | 1 to 10 µM | ≥ 75% | ≤ 0.1 µM | ≥ 75% | 0 to 25%
O=C(O)C1CCN(c2cc(F)ccc2CN2CCN(C(=O)OC(C(F)(F)F)C(F)(F)F)CC2)CC1 [Example 73, 1-(5-fluoro-2-((4-(((1,1,1,3,3,3-hexafluoropropan-2-yl)oxy)carbonyl)piperazin-1-yl)methyl)phenyl)piperidine-4-carboxylic acid] | 1 to 10 µM | ≥ 75% | ≤ 0.1 µM | ≥ 75% | 50 to 75%
N#Cc1ccc(CN2CCN(C(=O)OC(C(F)(F)F)C(F)(F)F)CC2)c(C2(C(=O)O)CCCC2)c1 [Example 30, 1-(5-Cyano-2-((4-(((1,1,1,3,3,3-hexafluoropropan-2-yl)oxy)carbonyl)piperazin-1-yl)methyl)phenyl)cyclopentane-1-carboxylic Acid] |  |  |  | ≥ 75% | 0 to 25%
Cc1ccc(CN2CCN(C(=O)OC(C(F)(F)F)C(F)(F)F)CC2)c(C2(C(=O)O)CCCC2)c1 [Example 14, 1-(2-((4-(((1,1,1,3,3,3-Hexafluoropropan-2-yl)oxy)carbonyl)piperazin-1-yl)methyl)-5-methylphenyl)cyclopentane-1-carboxylic Acid] | 1 to 10 µM | ≥ 75% | ≤ 0.1 µM | ≥ 75% | 0 to 25%
CN1CCN(c2cc(C(F)(F)F)ccc2CN2CCN(C(=O)OC(C(F)(F)F)C(F)(F)F)CC2)CC1C(=O)O (centres unmarked) [Example 58, 4-(2-((4-(((1,1,1,3,3,3-hexafluoropropan-2-yl)oxy)carbonyl)piperazin-1-yl)methyl)-5-(trifluoromethyl)phenyl)-1-methylpiperazine-2-carboxylic acid] |  | ≥ 75% |  | ≥ 75% | 0 to 25%
O=C(O)C1CCN(c2cc(Cl)c(F)cc2CN2CCN(C(=O)OC(C(F)(F)F)C(F)(F)F)CC2)CC1 [Example 60, 1-(5-chloro-4-fluoro-2-((4-(((1,1,1,3,3,3-hexafluoropropan-2-yl)oxy)carbonyl)piperazin1-yl)methyl)phenyl)piperidine-4-carboxylic acid] |  | ≥ 75% |  | ≥ 75% | ≥ 75%
O=C(O)CN1CCC(C2CCN(c3cc(Cl)ccc3CN3CCN(C(=O)OC(C(F)(F)F)C(F)(F)F)CC3)CC2)C1 (centres unmarked) [Example 33, 2-(3-(1-(5-Chloro-2-((4-(((1,1,1,3,3,3-hexafluoropropan-2-yl)oxy)carbonyl)piperazin-1-yl)methyl)phenyl)piperidin-4-yl)pyrrolidin-1-yl)acetic Acid] |  | ≥ 75% |  | ≥ 75% | 50 to 75%
N#Cc1ccc(CN2CCN(C(=O)OC(C(F)(F)F)C(F)(F)F)CC2)c(-c2ccn(CC(=O)O)n2)c1 [Example 50, 2-(3-(5-cyano-2-((4-(((1,1,1,3,3,3-hexafluoropropan-2-yl)oxy)carbonyl)piperazin-1-yl)methyl)phenyl)-1H-pyrazol-1-yl)acetic acid] |  | ≥ 75% |  | ≥ 75% | ≥ 75%
O=C(O)C1CCCCN1c1cc(C(F)(F)F)ccc1CN1CCN(C(=O)OC(C(F)(F)F)C(F)(F)F)CC1 (centres unmarked) [Example 65, 1-(2-((4-(((1,1,1,3,3,3-hexafluoropropan-2-yl)oxy)carbonyl)piperazin-1-yl)methyl)-5-(trifluoromethyl)phenyl)piperidine-2-carboxylic acid] |  | 50 to 75% |  | ≥ 75% | 0 to 25%
